Results from publication PMC12057336 (Antimicrobial Agents and Chemotherapy, 2025).

Molecular target: T1, human OATP2B1 (Homo sapiens, UniProt O94956)
T1 sequence (O94956 1-709): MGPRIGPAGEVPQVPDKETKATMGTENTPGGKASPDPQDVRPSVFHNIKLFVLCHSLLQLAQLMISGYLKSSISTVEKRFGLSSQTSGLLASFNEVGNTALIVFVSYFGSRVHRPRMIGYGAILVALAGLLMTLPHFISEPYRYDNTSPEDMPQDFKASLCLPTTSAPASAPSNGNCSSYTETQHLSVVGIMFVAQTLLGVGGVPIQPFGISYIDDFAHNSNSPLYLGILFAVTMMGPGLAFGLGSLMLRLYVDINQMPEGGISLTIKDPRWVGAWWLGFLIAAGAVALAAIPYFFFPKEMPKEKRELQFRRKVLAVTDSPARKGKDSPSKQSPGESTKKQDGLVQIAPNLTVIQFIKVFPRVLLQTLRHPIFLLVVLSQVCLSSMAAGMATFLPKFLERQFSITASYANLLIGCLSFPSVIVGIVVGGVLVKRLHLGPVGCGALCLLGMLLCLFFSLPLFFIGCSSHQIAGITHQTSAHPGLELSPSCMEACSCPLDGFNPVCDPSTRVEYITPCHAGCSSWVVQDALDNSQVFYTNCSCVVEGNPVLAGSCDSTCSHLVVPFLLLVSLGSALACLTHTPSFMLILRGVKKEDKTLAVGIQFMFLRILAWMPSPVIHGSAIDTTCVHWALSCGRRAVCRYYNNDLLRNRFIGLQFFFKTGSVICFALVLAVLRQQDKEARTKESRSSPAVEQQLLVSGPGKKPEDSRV
Test: Uptake in OATP2B1-transfected HEK293 cells
Settings: 5 µM; 10 min; 37°C; vs mock cells
Protocol: OATP1B1-, OATP1B3-, OATP2B1-, NTCP-, OAT1-, and OAT3-transfected HEK293 cells were cultured in DMEM supplemented with 10% FBS, 100 U/mL penicillin-streptomycin at 37°C with 95% relative humidity atmosphere containing 5% CO2. All cells were seeded in 24-well plates at a density of 4 × 10^5 cells/well and cultured for 1–2 days until they reached 80%–90% confluence. Prior to the initiation of uptake studies, the cells were washed twice with HBSS buffer at 37°C. Membrane vesicles were stored at −80°C and thawed at 37°C prior to the initiation of the studies.
All uptake tests were performed in triplicates. The activities of transporter-transfected HEK293 cells were evaluated using relevant positive substrates and inhibitors. E17G (5 µM, OATP1B1 and OATP1B3), ES (2 µM, OATP2B1), ES (5 µM, OAT3), TCA (10 µM, NTCP), and PAH (20 µM, OAT1) were used as substrates of the transporters. The inhibitors for each transporter were rifampicin (200 µM, OATP1B1 and OATP1B3), erlotinib (10 µM, OATP2B1), CsA (20 µM, NTCP), and probenecid (200 µM, OAT1 and OAT3).
The cells were washed three times with ice-cold HBSS buffer. […] The total protein concentration was measured using a BCA Protein Assay Kit. The uptake rates of HEK293-OATP1B1, HEK293-OATP1B3, HEK293-OATP2B1, HEK293-NTCP, HEK293-OAT1, HEK293-OAT3, and mock cells were calculated. […]

## CC(=O)NC[C@H]1CN(c2ccc(N3CCOCC3)c(F)c2)C(=O)O1 [Linezolid]
  substrate for OATP2B1: not a substrate
